Paper PMC6266398, “Anti-Acanthamoeba Activity of Brominated Sesquiterpenes from Laurencia johnstonii” (Marine Drugs, 2018)
Values after ≈ are worked out from the molar mass of the structure shown. Values joined by “and” are separate entries in the source; they are usually repeats but may differ in a detail not shown here. Equal values may be shown once. Read-outs that look alike come from different tables or passages of the source.

Key:
[1] = tested on: Acanthamoeba castellanii Neff; assay: anti-Acanthamoeba activity, alamarBlue method; type: cell-based; details: for IC50: Acanthamoeba castellanii, ATCC30010, 96 h, read-out: IC50 against Acanthamoeba castellanii Neff; for anti-Acanthamoeba activity (in words): Acanthamoeba castellanii Neff
Protocol: The amoeba strain used in this study was the type strain: Acanthamoeba castellanii Neff (ATCC 30010) which was axenically grown in PYG medium (0.75% (w/v) proteose peptone, 0.75% (w/v) yeast extract and 1.5% (w/v) glucose) containing 40 μg/mL of gentamicin (Biochrom AG, Cultek, Granollers, Barcelona, Spain).
To evaluate the biological activity of the fractions and molecules, the anti-Acanthamoeba assays were determined using the alamarBlue® method as previously described. Firstly, Acanthamoeba strain was seeded in triplicate on a 96-well microtiter plates with 50 μL from a stock solution of 10^4 cells/mL. Amoebae were left to adhere to the bottom of the well for 15 min, which was checked using a Leika DMIL inverted microscope (Leika, Wetzlar, Germany). After that, 50 μL of serial dilutions of the molecules were added to the wells (1% DMSO was used to dissolve the highest dose of the compounds with no effects on the parasites). […] Finally, the alamarBlue Reagent® (Life Technologies, Madrid, Spain) was placed into each well at an amount equal to 10% of the final volume. Then, plates containing alamarBlue® were incubated for 96 h at 26 °C with a slight agitation.
(§1) Briefly, the test plates were analyzed, during an interval of time between 24 and 96 h, on an EnSpire® Multimode Plate Reader (Perkin Elmer, Madrid, Spain) using fluorescence, a test wavelength of 570 nm and a reference wavelength of 630 nm. The percentage of the growth inhibition, 50% inhibitory concentration (IC50 or CC50) was calculated by linear regression analysis with 95% confidence limits using Sigma Plot 12.0 statistical analysis software (Systat Software). All experiments were performed three times, and the mean values were also calculated. A paired two-tailed t-test was used for analysis of the data. Values of p < 0.05 were considered significant.

[2] = cytotoxicity test, alamarBlue method; type: cell-based; details: mouse, 37 °C, read-out: CC50 against murine macrophage J774.A1
Protocol: The murine macrophages J774A.1 (ATCC# TIB-67) cell line was cultured in RPMI 1640 medium supplemented with 10% fetal bovine serum at 37 °C and 5% CO2 atmosphere, was used for the cytotoxicity assays.
The cytotoxicity assay was carried out using the alamarBlue® method as previously described. Firstly, the macrophages were seeded in triplicate on a 96-well microtiter plates with 50 μL from a stock solution of 2 × 10^5 cells/mL. Macrophages were left to adhere to the bottom of the well for 15 min, which was checked using a Leika DMIL inverted microscope (Leika, Wetzlar, Germany). After that, 50 μL of serial dilutions of the molecules were added to the wells. Finally, the alamarBlue Reagent® (Life Technologies, Madrid, Spain) was placed into each well at an amount equal to 10% of the final volume. Then, plates containing alamarBlue® were incubated for 24 h at 37 °C in presence of CO2 at 5%.
as §1

[3] = Neff strain (ATCC 30010), alamarBlue, 96 h at 26 °C
[4] = J774A.1 macrophages (ATCC TIB-67)

| IC50 [1, 3] | IC50 against Acanthamoeba castellanii Neff [1, 3] [mg/L] | SMILES | CC50 at 24 h [2, 4] [mg/L] | anti-Acanthamoeba activity (in words) [1] | IC50 [1] | CC50 at 24 h [2] [mg/L] |
| --- | --- | --- | --- | --- | --- | --- |
| 24.6 µg/mL and 65.6 µM | – | Cc1c(Br)cc2c(c1Br)O[C@@]1(C)[C@@H](C)CC[C@@]21C [compound 6, 8-Bromoaplysin] | 32.9 ± 3.12 (≈ 87.9 µM) | – | – | – |
| > 100 mg/L | – | C=C1[C@@H](C)CC[C@@]1(C)c1cc(Br)c(C)cc1O [compound 2, isolaurinterol] | 7.25 ± 0.7 (≈ 24.6 µM) | inactive | – | – |
| > 100 mg/L | – | Cc1cc2c(cc1Br)[C@]1(C)CC[C@H](C)[C@]1(C)O2 [compound 3, aplysin] | 324 ± 12 (≈ 1100 µM) | – | – | – |
| 18.8 µg/mL and 41.5 µM | – | Cc1c(Br)cc2c(c1Br)O[C@@]1(C)C[C@@H](Br)CC[C@@]21C [compound 7, 3α-Bromojohnstane] | 62.3 ± 2.59 (≈ 138 µM) | – | – | – |
| > 100 mg/L | – | Cc1cc(O)c(C2(C)CCC3CC32C)cc1Br (centres unmarked) [compound 1, laurinterol] | 23.6 ± 2.3 (≈ 80.1 µM) | inactive | – | – |
| 29.9 µg/mL and 76.7 µM | – | Cc1c(Br)cc2c(c1Br)O[C@@]1(CO)[C@@H](C)CC[C@@]21C [compound 9, 8,10-Dibromoaplysinol] | 74.9 ± 2.77 (≈ 192 µM) | – | – | – |

The next lines start with the molecule.

| SMILES | IC50 [1, 3] | IC50 against Acanthamoeba castellanii Neff [1, 3] [mg/L] | CC50 at 24 h [2, 4] [mg/L] | anti-Acanthamoeba activity (in words) [1] | IC50 [1] | CC50 at 24 h [2] [mg/L] |
| --- | --- | --- | --- | --- | --- | --- |
| Cc1ccc([C@]2(C)CC[C@H](Br)C2(C)C)cc1 [compound 5, α-isobromocuparane] | 64.2 µg/mL and 228 µM | 64.251 ± 3.492 (≈ 228 µM) | 85.3 ± 10.9 (≈ 303 µM) | – | – | – |
| [H]/N=C(\N/C(=N/[H])NCCCCCCNC(=N)NC(=N)Nc1ccc(Cl)cc1)Nc1ccc(Cl)cc1 [Chlorhexidine, chlorhexidine, reference compound] | 1.53 µg/mL and 3.02 µM | – | 6.64 ± 0.35 (≈ 13.1 µM) | – | – | – |
| C[C@@H](c1ncncc1F)[C@](O)(Cn1cncn1)c1ccc(F)cc1F [Voriconazole, voriconazole, reference compound] | 0.33 µg/mL and 940 nM | – | 2.64 ± 0.27 (≈ 7.56 µM) | – | – | – |
| Cc1c(Br)cc2c(c1Br)O[C@@]1(CBr)[C@@H](C)CC[C@@]21C [compound 8, 8,10-Dibromoisoaplysin] | – | – | – | – | 22.8 µg/mL and 50.4 µM | 70.4 ± 3.25 (≈ 155 µM) |
| Cc1ccc([C@]2(C)CC[C@@H](Br)C2(C)C)cc1 [compound 4, α-bromocuparane] | 90.7 µg/mL and 322 µM | 90.674 ± 1.529 (≈ 322 µM) | 33 ± 4.2 (≈ 117 µM) | – | – | – |
